Columns and labels:
human FLT3-ITD enzyme = molecular target: T1, human FLT3-ITD enzyme (Homo sapiens, UniProt P36888); assay: FLT3 enzyme inhibitory ability (ADP-Glo kinase assay); format: biochemical; conditions: human FLT3-ITD enzyme 10 ng, ATP 10 μM, 25° C. 1 hour
T1 sequence (P36888 1-993): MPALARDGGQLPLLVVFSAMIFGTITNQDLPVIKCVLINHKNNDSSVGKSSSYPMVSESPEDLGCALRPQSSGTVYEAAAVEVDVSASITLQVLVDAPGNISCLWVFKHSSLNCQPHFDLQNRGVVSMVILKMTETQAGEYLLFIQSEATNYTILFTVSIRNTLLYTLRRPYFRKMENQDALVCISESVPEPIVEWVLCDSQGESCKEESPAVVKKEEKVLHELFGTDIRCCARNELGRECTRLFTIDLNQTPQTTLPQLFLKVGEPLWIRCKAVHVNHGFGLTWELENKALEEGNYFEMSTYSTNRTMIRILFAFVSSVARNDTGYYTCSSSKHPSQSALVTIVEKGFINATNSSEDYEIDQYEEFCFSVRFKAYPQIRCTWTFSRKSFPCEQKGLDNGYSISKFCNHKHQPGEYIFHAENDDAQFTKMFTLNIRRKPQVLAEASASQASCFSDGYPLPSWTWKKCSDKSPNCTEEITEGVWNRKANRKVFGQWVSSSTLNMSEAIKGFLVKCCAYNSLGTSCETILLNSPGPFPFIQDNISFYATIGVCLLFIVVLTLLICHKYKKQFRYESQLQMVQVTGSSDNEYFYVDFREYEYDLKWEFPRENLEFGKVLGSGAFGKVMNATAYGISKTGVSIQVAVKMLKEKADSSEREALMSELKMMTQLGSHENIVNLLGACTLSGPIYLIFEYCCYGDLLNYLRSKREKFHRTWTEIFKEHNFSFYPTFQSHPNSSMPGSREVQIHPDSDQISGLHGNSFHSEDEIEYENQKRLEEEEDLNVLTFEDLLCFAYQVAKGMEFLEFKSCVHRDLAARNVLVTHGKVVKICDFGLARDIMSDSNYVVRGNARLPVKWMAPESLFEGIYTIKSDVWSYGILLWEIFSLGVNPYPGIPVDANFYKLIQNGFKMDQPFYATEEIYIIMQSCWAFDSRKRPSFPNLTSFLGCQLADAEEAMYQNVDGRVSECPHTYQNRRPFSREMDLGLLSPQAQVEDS
Procedure: The inhibitory activities of the example compounds according to the present invention to the FLT3-ITD enzyme were evaluated. Specifically, the compound of the present invention was reacted with a purified human FLT3-ITD enzyme (Signalchem). A composition of 40 mM Tris-HCl pH 7.4, 20 mM MgCl2, 0.5 mg/mL BSA and 50 μM DTT was used as a reaction buffer, and reactions of all test matters were performed on the reaction buffer. Upon the test, human FLT3-ITD enzyme (10 ng), purified ATP (10 μM) and a specific substrate solution were reacted at 25° C. for 1 hour, and then the enzyme activity was identified using an in vitro ADP-Glo™ kinase assay (Promega). The enzyme activity reaction solution, the ADP-Glo reaction solution and the enzyme ability detection solution were reacted in a ratio of 2:2:1, and the activity inhibition degree of the enzyme was measured as luminescence. Using the solvent-treated group that was not treated with the compound as a control group, the enzyme activity inhibition degree according to the treatment concentration of each compound was calculated based on the enzyme activity fluorescence degree, and the concentration of each compound that inhibited 50%, IC50 (nM), was determined using Prism Software (version 5.01, GraphPad).

MCF-7 cells = assay: Breast cancer cell line proliferation inhibitory activity (CellTiter-Glo 2.0); format: cell-based; conditions: Homo sapiens, MCF7, 120 hours
Procedure: In order to evaluate the breast cancer cell line cell proliferation inhibitory activities of Examples according to the present invention, the following experiment was performed. Breast cancer cells of MCF-7 (Korean Cell Line Bank) were planted in a clear bottom white 96-well plate (Corning) so as to be 3×10^3/150 μl/well, and a culture solution comprising the compound continuously diluted in multiples of 3 at 12 concentrations (0.00001-2 mM) and a DMSO control group was added by 0.5 μl/well and treated so that the final concentration was 0.00005-10 μM, and then cultured in a 37° C. CO2 incubator for 120 hours. After 120 hours, the plate treated with the compound is taken out, and CellTiter-Glo® 2.0 Assay (Promega) solution is treated at 150 μl/well and then they mix well. They mix well at room temperature for 10 minutes or so, and the fluorescence is measured with a microplate reader. The data were expressed as a percentage in proportion to the vehicle standard treated cells, the GI50 (nM) values were calculated using GraphPad Prism 8.3.0 (GraphPad software Inc., San Diego), and the results were shown in Table 3 below.

human GST-HPK1 (1-346) = molecular target: T2, human GST-HPK1 (1-346) (Homo sapiens, UniProt Q92918); assay: HPK1 enzyme inhibitory ability (ADP-Glo kinase assay); format: biochemical; conditions: human GST-HPK1 3 ng, ATP 3 uM, 25° C. 2 hours
T2 construct: purified human GST-HPK1 (1-346, Signalchem) enzyme; purchased Signalchem
T2 sequence (Q92918 1-346): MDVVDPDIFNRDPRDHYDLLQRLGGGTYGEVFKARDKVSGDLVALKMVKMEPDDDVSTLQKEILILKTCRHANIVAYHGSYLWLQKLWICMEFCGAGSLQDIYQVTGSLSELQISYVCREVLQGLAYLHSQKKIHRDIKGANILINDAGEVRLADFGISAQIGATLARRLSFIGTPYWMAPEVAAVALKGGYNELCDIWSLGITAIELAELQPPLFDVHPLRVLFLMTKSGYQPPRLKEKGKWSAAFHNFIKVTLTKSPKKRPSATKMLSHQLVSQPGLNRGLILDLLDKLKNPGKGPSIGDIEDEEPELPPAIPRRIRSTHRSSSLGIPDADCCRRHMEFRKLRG
Procedure: In order to evaluate the inhibitory activities of the example compounds according to the present invention on the HPK1 (hematopoietic progenitor kinase 1) enzyme, the following experiment was performed. The example compounds were reacted with the purified human GST-HPK1 (1-346, Signalchem) enzyme to evaluate the enzyme inhibitory ability by the following method. As the reaction buffer, a composition of 40 mM Tris-HCl pH 7.4, 20 mM MgCl2, 0.5 mg/mL BSA and 50 uM DTT was used, and reactions of all test matters were performed on the reaction buffer. Upon the test, the human GST-HPK1 (3 ng) enzyme, the purified ATP (3 uM) and a specific substrate solution were reacted at 25° C. for 2 hours, and then the enzyme activity was identified using an in vitro ADP-Glo™ kinase assay (promega). The enzyme activity reaction solution, the ADP-Glo reaction solution and the enzyme ability detection solution were reacted in a ratio of 2:2:1 to measure luminescence. The enzyme activity inhibition degree according to the treatment concentrations of the respective compounds was calculated based on the fluorescence of the enzyme activity of the solvent control group that was not treated with the compound, where the concentration of each compound that inhibited enzyme activity inhibition by 50% was determined as an IC50 (nM) value.

IC50 (human FLT3-ITD enzyme) [nM]	GI50 (MCF-7 cells) [nM]	IC50 (human GST-HPK1 (1-346)) [nM]	Compound
> 500	> 500	> 500	CC1(C)OC(=O)c2ccc(Nc3nc(N4OCC[C@H]4c4ccccc4)c4cc[nH]c4n3)cc21 [Example 115, (S)-3,3-dimethyl-5-((4-(3-phenylisoxazolidin-2-yl)-7H-pyrrolo[2,3-d]pyrimidin-2-yl)amino)isobenzofuran-1(3H)-one]
> 500	> 500	> 500	CN(C)[C@@H]1CCN(c2cccc(Nc3nc(N4OCC[C@H]4c4ccccc4)c4cc[nH]c4n3)c2)C1 [Example 100, N-(3-((R)-3-(dimethylamino)pyrrolidin-1-yl)phenyl)-4-((S)-3-phenylisoxazolidin-2-yl)-7H-pyrrolo[2,3-d]pyrimidin-2-amine]
> 500	> 500	> 500	CN(C)[C@H]1CCN(c2cccc(Nc3nc(N4OCC[C@H]4c4ccccc4)c4cc[nH]c4n3)c2)C1 [Example 99, N-(3-((S)-3-(dimethylamino)pyrrolidin-1-yl)phenyl)-4-((S)-3-phenylisoxazolidin-2-yl)-7H-pyrrolo[2,3-d]pyrimidin-2-amine]
> 500	> 500	> 500	CN1CCN(c2ccc(Nc3nc(N4OCC[C@@H]4c4ccccc4)c4sccc4n3)cc2)CC1 [Example 60, (R)-N-(4-(4-methylpiperazin-1-yl)phenyl)-4-(3-phenylisoxazolidin-2-yl)thieno[3,2-d]pyrimidin-2-amine]
> 500	> 500	> 500	OCCN1CC[C@@H](Oc2cc(Nc3nc(N4OCC[C@H]4c4ccccc4)c4cc[nH]c4n3)cc(C3CC3)c2)C1 [Example 93, 2-((R)-3-(3-cyclopropyl-5-((4-((S)-3-phenylisoxazolidin-2-yl)-7H-pyrrolo[2,3-d]pyrimidin-2-yl)amino)phenoxy)pyrrolidin-1-yl)ethan-1-ol]
> 500	> 500	> 500	COc1cc(Nc2nc(N3N=CCC3c3ccccc3)c3sccc3n2)cc(C(=O)N2CCN(CCO)CC2)c1 (stereo not drawn) [Example 15, (4-(2-hydroxyethyl)piperazin-1-yl)(3-methoxy-5-((4-(5-phenyl-4,5-dihydro-1H-pyrazol-1-yl)thieno[3,2-d]pyrimidin-2-yl)amino)phenyl)methanone]
> 500	> 500	≥ 250	CCN1CCN(C2CCN(c3ccc(Nc4nc(N5OCC[C@H]5c5ccccc5)c5cc[nH]c5n4)cc3)CC2)CC1 [Example 85, (S)-N-(4-(4-(4-ethylpiperazin-1-yl)piperidin-1-yl)phenyl)-4-(3-phenylisoxazolidin-2-yl)-7H-pyrrolo[2,3-d]pyrimidin-2-amine]
> 500	> 500	> 500	CN(C)[C@H]1CCN(c2cccc(Nc3nc(N4OCC[C@H]4c4ccccc4)c4sccc4n3)c2)C1 [Example 62, N-(3-((S)-3-(dimethylamino)pyrrolidin-1-yl)phenyl)-4-((S)-3-phenylisoxazolidin-2-yl)thieno[3,2-d]pyrimidin-2-amine]
> 500	> 500	> 500	CN(C)[C@@H]1CCN(c2cccc(Nc3nc(N4OCC[C@H]4c4ccccc4)c4sccc4n3)c2)C1 [Example 61, N-(3-((R)-3-(dimethylamino)pyrrolidin-1-yl)phenyl)-4-((S)-3-phenylisoxazolidin-2-yl)thieno[3,2-d]pyrimidin-2-amine]
> 500	> 500	> 500	COc1cc(Nc2nc(N3OCC[C@@H]3c3ccccc3)c3sccc3n2)cc(C(=O)N2CCN(CCO)CC2)c1 [Example 67, (R)-(4-(2-hydroxyethyl)piperazin-1-yl)(3-methoxy-5-((4-(3-phenylisoxazolidin-2-yl)thieno[3,2-d]pyrimidin-2-yl)amino)phenyl)methanone]
> 500	> 500	≥ 250	CN1CCC(NC(=O)c2ccc(Nc3nc(N4OCC[C@H]4c4ccccc4)c4cc[nH]c4n3)cc2)CC1 [Example 95, (S)-N-(1-methylpiperidin-4-yl)-4-((4-(3-phenylisoxazolidin-2-yl)-7H-pyrrolo[2,3-d]pyrimidin-2-yl)amino)benzamide]
> 500	≥ 250	> 500	COc1cc(N2CCC(N3CCN(C)CC3)CC2)ccc1Nc1nc(N2OCC[C@H]2c2ccccc2)c2c(C#N)c[nH]c2n1 [Example 121, (S)-2-((2-methoxy-4-(4-(4-methylpiperazin-1-yl)piperidin-1-yl)phenyl)amino)-4-(3-phenylisoxazolidin-2-yl)-7H-pyrrolo[2,3-d]pyrimidine-5-carbonitrile]
> 500	> 500	> 500	CN(C)[C@@H]1CCN(c2cccc(Nc3nc(N4N=CCC4c4ccccc4)c4sccc4n3)c2)C1 (stereo partly drawn) [Example 17, N-(3-((R)-3-(dimethylamino)pyrrolidin-1-yl)phenyl)-4-(5-phenyl-4,5-dihydro-1H-pyrazol-1-yl)thieno[3,2-d]pyrimidin-2-amine]
> 500	> 500	≥ 250	CN1C[C@@H]2C[C@H]1CN2c1cc(Nc2nc(N3OCC[C@H]3c3ccccc3)c3cc[nH]c3n2)cc(S(C)(=O)=O)c1 [Example 91, N-(3-((1S,4S)-5-methyl-2,5-diazabicyclo[2.2.1]heptan-2-yl)-5-(methylsulfonyl)phenyl)-4-((S)-3-phenylisoxazolidin-2-yl)-7H-pyrrolo[2,3-d]pyrimidin-2-amine]

— patent US20220242870A1, “HETEROCYCLE-FUSED PYRIMIDINE DERIVATIVE AND USE THEREOF” (VORONOI Inc., priority 2019, published 2022)
